Assay results as given in patent publication EP3653636A1, “COMPOSITIONS AND METHODS FOR IMPROVING REBAUDIOSIDE X SOLUBILITY” (The Coca-Cola Company, priority 2012, dated 2014).
Values after ≈ are worked out from the molar mass of the structure shown.

Legend:
[1] = Approximate water solubility by solvent addition method (visual inspection of complete dissolution)
Procedure: The approximate water solubility of Form A and amorphous Rebaudioside X were determined by a solvent addition method in which a weighed sample was treated with aliquots of water. The mixture was generally vortexed and/or sonicated between additions to facilitate dissolution. Complete dissolution of the test material was determined by visual inspection. Solubility was estimated based on the total solvent used to provide complete dissolution. The actual solubility may be greater than the value calculated because of the use of solvent aliquots that were too large or due to a slow rate of dissolution.

[2] = Water solubility of starting sample and spray-dried product (Example 4); assay type: physicochemical
[3] = Equilibrium solubility in water by UV absorbance at 205 nm (Example 10); assay type: physicochemical; conditions: 25°C; for Original Sample Concentration: 250 mg in 10 mL water
Procedure: Samples were analyzed with a Cary 50 UV-Vis dual beam spectrophotometer. The detector was zeroed with a cuvette filled with water prior to sample analysis. Samples were analyzed at room temperature in 1.0 cm quartz cuvette using a scan rate of 600 nm/min in a range of 200 - 400 nm.
25.8 mg of amorphous Rebaudioside X was added to a 10-mL volumetric flask and dissolved 10 mL with water. This stock solution was diluted to five concentration levels for UV measurement.
A calibration curve at 205 nm was established (Abs at 205 nm vs. concentration) to provide the equation y = 5.0625x + 0.0022. R^2 was 0.9999. This equation was used for the subsequent determination of Rebaudioside X concentrations.
250 mg of amorphous Rebaudioside X was added to an amber vial and 10 mL of water was added. The mixture was stirred at room temperature about 10 minutes to yield a transparent solution with only small amount of solid remaining. The mixture became opaque rapidly. The mixture was placed on a mechanical oscillator set at a speed of 250 and 25°C. At the sampling time point of 1, 16, 24, 48, 72, 96, and 192 hours, an aliquot of the slurry was transferred to a centrifuge tube and separated at a speed of 16K rcf for 15 minutes. 200 µL of the clear supernatant was transferred to a 50-mL volumetric flask, 10 mL of water was added and mixed well before UV analysis.

[4] = Duration of clarity of aqueous solutions at various test material/water ratios, with or without filtration (Example 9); assay type: physicochemical
Source text: The water solubility of amorphous Rebaudioside X prepared according to Example 4 was compared in various test material/water ratios with or without filtration prior to solubility determination. Generally, filtration performed after dissolution of sample assist the duration of clarity of the sample (or delays the precipitation/recrystallization of sample). […]

[5] = Dynamic Vapor Sorption (DVS) isotherm; assay type: physicochemical
Procedure: The Dynamic Vapor Sorption (DVS) DVS data were collected on a VTI SGA-100 Vapor Sorption Analyzer. NaCl and PVP were used as calibration standards. The sample was not dried prior to analysis. Sorption and desorption data were collected over a range from 5 to 95% RH at 10% RH increments under a nitrogen purge. The equilibrium criterion used for analysis was less than 0.0100% weight change in 5 minutes with a maximum equilibration time of 3 hours. Data were not corrected for the initial moisture content of the samples.

[6] = Table 6, water, solvent addition

## C=C1C[C@@]23CC[C@H]4[C@@](C)(CCC[C@@]4(C)C(=O)O[C@@H]4O[C@H](CO)[C@@H](O)[C@H](O[C@@H]5O[C@H](CO)[C@@H](O)[C@H](O)[C@H]5O)[C@H]4O[C@@H]4O[C@H](CO)[C@@H](O)[C@H](O)[C@H]4O)[C@@H]2CC[C@]1(O[C@@H]1O[C@H](CO)[C@@H](O)[C@H](O[C@@H]2O[C@H](CO)[C@@H](O)[C@H](O)[C@H]2O)[C@H]1O[C@@H]1O[C@H](CO)[C@@H](O)[C@H](O)[C@H]1O)C3 [Form A Rebaudioside X, (13-[2-O-β-D-glucopyranosyl-3-O-β-D-glucopyranosyl-β-D-glucopyranosyl)oxy] ent kaur-16-en-19-oic acid-[2-O-β-D-glucopyranosyl-3-O-β-D-glycopyranosyl) ester]
[1]; [6]
  Approximate Water Solubility: 1400 µg/mL
[1]; discussion text of Example 13
  Approximate Water Solubility: 14000 µg/mL
[2]
  water solubility: 0.05%

## C=C1C[C@@]23CC[C@H]4[C@@](C)(CCC[C@@]4(C)C(=O)O[C@@H]4O[C@H](CO)[C@@H](O)[C@H](O[C@@H]5O[C@H](CO)[C@@H](O)[C@H](O)[C@H]5O)[C@H]4O[C@@H]4O[C@H](CO)[C@@H](O)[C@H](O)[C@H]4O)[C@@H]2CC[C@]1(O[C@@H]1O[C@H](CO)[C@@H](O)[C@H](O[C@@H]2O[C@H](CO)[C@@H](O)[C@H](O)[C@H]2O)[C@H]1O[C@@H]1O[C@H](CO)[C@@H](O)[C@H](O)[C@H]1O)C3 [amorphous Rebaudioside X, (13-[2-O-β-D-glucopyranosyl-3-O-β-D-glucopyranosyl-β-D-glucopyranosyl)oxy] ent kaur-16-en-19-oic acid-[2-O-β-D-glucopyranosyl-3-O-β-D-glycopyranosyl) ester]
[1]; aqueous, grams of Rebaudioside X per 100 mL water
  approximate solubility: greater than 0.3%
[2]
  water solubility: greater than 1%
[3]; sampling time 1 hrs
  Original Sample Concentration: 5.8 mg/mL
[3]; sampling time 16 hrs
  Original Sample Concentration: 2.7 mg/mL
[3]; sampling time 24 hrs
  Original Sample Concentration: 2.6 mg/mL
[3]; sampling time 48 hrs
  Original Sample Concentration: 2.5 mg/mL
[3]; sampling time 72 hrs
  Original Sample Concentration: 2.8 mg/mL
[3]; sampling time 96 hrs
  Original Sample Concentration: 2.8 mg/mL
[3]; sampling time 192 hrs
  Original Sample Concentration: 2.6 mg/mL
[3]; water
  solubility thermodynamic: 2600 µg/mL (≈ 2010 µM)
  time until equilibrium was established: ≤ 16 h
[4]; Sample 1: 250 mg/500 mL water, not filtered
  Duration of Clarity of Sample: > 60 days^a
[4]; Sample 2: 500 mg/500 mL water, not filtered
  Duration of Clarity of Sample: > 60 days^a
[4]; Sample 3: 750 mg/500 mL water, not filtered
  Duration of Clarity of Sample: > 0.12 days
[4]; Sample 5: 625 mg/250 mL water, filtered (0.22 µm membrane)
  Duration of Clarity of Sample: > 1 days
[4]; Sample 6: 1750 mg/500 mL water, not filtered
  Duration of Clarity of Sample: ∼3 h
[4]; Sample 7: 1750 mg/500 mL water, filtered (0.22 µm membrane)
  Duration of Clarity of Sample: > 1 days
[4]; Sample 8: 1000 mg/100 mL water, filtered (0.22 µm membrane)
  Duration of Clarity of Sample: ∼2 h
[5]; DVS desorption from 95% to 5% RH
  weight loss upon desorption: 26.0 wt%
[5]; DVS sorption from 5% to 95% RH
  weight gain with increasing relative humidity: 26.3 wt%
[5]; DVS, 5% RH
  weight loss upon equilibration at 5% RH: 3.1 wt%

## C=C1C[C@@]23CC[C@H]4[C@@](C)(CCC[C@@]4(C)C(=O)O[C@@H]4O[C@H](CO)[C@@H](O)[C@H](O[C@@H]5O[C@H](CO)[C@@H](O)[C@H](O)[C@H]5O)[C@H]4O[C@@H]4O[C@H](CO)[C@@H](O)[C@H](O)[C@H]4O)[C@@H]2CC[C@]1(O[C@@H]1O[C@H](CO)[C@@H](O)[C@H](O[C@@H]2O[C@H](CO)[C@@H](O)[C@H](O)[C@H]2O)[C@H]1O[C@@H]1O[C@H](CO)[C@@H](O)[C@H](O)[C@H]1O)C3 [Amorphous (water process)]
[1]; [6]
  Approximate Water Solubility: >10000 µg/mL
